From paper PMC9782245, “Synthesis and Structural Optimization of 2,7,9-Trisubstituted purin-8-ones as FLT3-ITD Inhibitors” (International Journal of Molecular Sciences, 2022)

Experiments:
MV4-11 cells = assay: Flow cytometric cell cycle analysis, MV4-11; type: cell-based, Human; settings: increasing doses, 24 h
Experimental: FLT3 inhibition causes G1-cell cycle arrest in FLT3-dependent cell lines such as MV4-11; we, therefore, performed flow cytometric analysis to evaluate cell cycle changes in MV4-11 and K562 cell lines treated with 200 nM compounds for 24 h. […] Specifically, 18 compounds arrested >85% of cells in the G1 phase, which is >30% cells in the G1 phase of the cell cycle than in control cells (Figure 4A).
(§1) Finally, we performed flow cytometric analysis with different concentrations of 15a in MV4-11 and MOLM13 (another FLT-ITD positive cell line) and K562 cell lines treated for 24 h (Figure 5).
(§2) Asynchronously growing cells were seeded into a 96-well plate and, after a preincubation period, treated with tested compounds for 24 h. The treated cells were stained directly (or after trypsinization for the adherent cells) with the 5× staining solution (17 mM trisodium citrate dihydrate, 0.5% IGEPAL CA-630, 7.5 mM spermine tetrahydrochloride, and 2.5 mM Tris; pH 7.6 containing […] propidium iodide). After the staining, DNA content was analyzed using flow cytometry using a 488 nm laser (BD FACS Verse with software BD FACSuite^TM, version 1.0.6). Cell cycle distribution was analyzed using ModFit LT (Verity Software House, version 5.0). Palbociclib, trilaciclib, and quizartinib were purchased from MedChemExpress, Monmouth Junction, NJ, USA.

MV4-11 xenograft = assay: MV4-11 subcutaneous xenograft model in NSG mice; type: in vivo; settings: 20 mg/kg, daily i.p.
Description: Finally, we tested the in vivo activity of 15a in a model of AML based on subcutaneous xenotransplantation of MV4-11 cells in immunodeficient mice.
The experimental design was approved by the Institutional Animal Care and Use Committee (MSMT-37334/2020-4). Immunodeficient adult female NOD.Cg-Prkdc^scidIl2rg^tm1Wjl/SzJ mice (referred to as NSG mice) were purchased from The Jackson Laboratory and preserved in a pathogen-free environment in individually ventilated cages, provided with sterilized food and water. NSG mice were subcutaneously inoculated with 10 × 10^6 leukemia cells. […] Each cohort contained 6 animals. Three perpendicular dimensions (in millimeters) were measured daily with a digital caliper and tumor volumes were calculated using the following formula: π/6 × length × width × height. An experiment was terminated (and mice euthanized) when tumors exceeded 20 mm in the largest diameter.

Lyn = target: T1, Lyn (Homo sapiens, UniProt P07948); assay: Kinase selectivity panel at 1 µM (Eurofins), Lyn; type: biochemical; settings: read-out: residual enzyme activity Lyn
T1 construct: purchased Eurofins Discovery (France)
T1 sequence (P07948 whole entry): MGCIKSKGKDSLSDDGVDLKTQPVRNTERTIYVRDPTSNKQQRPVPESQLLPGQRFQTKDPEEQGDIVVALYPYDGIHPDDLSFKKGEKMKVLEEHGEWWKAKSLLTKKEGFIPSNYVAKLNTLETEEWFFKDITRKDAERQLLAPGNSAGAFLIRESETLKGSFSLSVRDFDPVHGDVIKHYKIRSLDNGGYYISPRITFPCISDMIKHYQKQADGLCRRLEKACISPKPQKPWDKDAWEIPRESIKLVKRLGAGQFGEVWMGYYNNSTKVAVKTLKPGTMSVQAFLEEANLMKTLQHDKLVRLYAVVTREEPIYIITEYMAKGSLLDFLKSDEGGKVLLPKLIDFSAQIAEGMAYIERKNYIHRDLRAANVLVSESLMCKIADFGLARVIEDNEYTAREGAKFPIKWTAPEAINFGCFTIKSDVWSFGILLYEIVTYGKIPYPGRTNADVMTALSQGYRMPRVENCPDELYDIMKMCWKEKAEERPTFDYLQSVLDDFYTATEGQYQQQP
Experimental: (§3) Three representative compounds (14d, 14e, and 15a) were profiled in a 1 µM concentration against 30 kinases that were selected as known off-targets of approved CDK4/6 inhibitors. […] Additional sensitive kinases include STK16, EphA1, MEKK2, SRC, and MER (≤10% of residual enzyme activities), which are not targets of the structurally similar CDK4/6 inhibitor, trilaciclib. We also screened compound 15a, an analogue of 14d, bearing isopropyl at position 7 of the purine instead of the methyl group. This change rapidly diminished the potency against CDK4 (dropped to 90% of residual enzyme activity), but the preference for FLT3 remained (1st rank) (Figure 2).
(§4) CDK/cyclin complexes and FLT3 kinases were assayed as previously described. Protein kinase selectivity was evaluated at a single concentration (1 µM) by screening against 30 enzymes at Eurofins Discovery (France).

Abl = target: T2, Abl (Homo sapiens, UniProt P00519); assay: Kinase selectivity panel at 1 µM (Eurofins), Abl; type: biochemical; settings: read-out: residual enzyme activity Abl
T2 construct: purchased Eurofins Discovery (France)
T2 sequence (P00519 whole entry): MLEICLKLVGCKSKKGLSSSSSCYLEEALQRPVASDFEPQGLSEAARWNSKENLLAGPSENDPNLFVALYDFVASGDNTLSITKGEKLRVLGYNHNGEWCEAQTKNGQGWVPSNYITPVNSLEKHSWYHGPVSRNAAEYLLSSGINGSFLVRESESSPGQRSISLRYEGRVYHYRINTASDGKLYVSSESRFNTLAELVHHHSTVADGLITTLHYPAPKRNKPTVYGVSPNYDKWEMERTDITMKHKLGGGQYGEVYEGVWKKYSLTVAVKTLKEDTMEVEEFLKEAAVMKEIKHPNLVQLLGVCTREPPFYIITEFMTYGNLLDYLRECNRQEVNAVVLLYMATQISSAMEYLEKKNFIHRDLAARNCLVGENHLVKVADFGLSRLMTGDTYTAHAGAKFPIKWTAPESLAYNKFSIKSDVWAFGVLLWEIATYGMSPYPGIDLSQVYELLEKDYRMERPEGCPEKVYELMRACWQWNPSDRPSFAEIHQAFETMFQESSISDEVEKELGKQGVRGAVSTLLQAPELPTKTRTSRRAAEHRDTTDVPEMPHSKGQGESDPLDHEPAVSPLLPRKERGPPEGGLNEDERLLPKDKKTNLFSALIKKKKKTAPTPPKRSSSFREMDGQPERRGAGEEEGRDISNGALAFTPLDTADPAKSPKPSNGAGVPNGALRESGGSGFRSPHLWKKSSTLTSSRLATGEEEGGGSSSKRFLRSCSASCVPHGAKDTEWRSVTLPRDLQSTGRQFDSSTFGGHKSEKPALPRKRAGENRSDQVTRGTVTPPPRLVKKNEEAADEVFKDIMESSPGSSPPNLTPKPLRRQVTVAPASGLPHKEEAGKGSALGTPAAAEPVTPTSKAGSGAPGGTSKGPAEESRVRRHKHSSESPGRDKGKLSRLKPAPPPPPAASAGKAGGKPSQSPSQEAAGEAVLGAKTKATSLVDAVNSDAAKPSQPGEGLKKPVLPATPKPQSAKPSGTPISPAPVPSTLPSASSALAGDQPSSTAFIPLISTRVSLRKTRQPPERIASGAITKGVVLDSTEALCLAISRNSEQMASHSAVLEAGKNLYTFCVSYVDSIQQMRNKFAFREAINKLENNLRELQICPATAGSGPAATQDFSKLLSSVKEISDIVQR
Experimental: as §3, §4

MOLM13 cells = assay: Flow cytometric cell cycle analysis, MOLM13; type: cell-based; settings: increasing doses, 24 h
Experimental: as §1
as §2, with “5.0).” for “5.0). Palbociclib, trilaciclib, and quizartinib were purchased from MedChemExpress, Monmouth Junction, NJ, USA.”

EphA1 = target: T3, EphA1 (Homo sapiens, UniProt P21709); assay: Kinase selectivity panel at 1 µM (Eurofins), EphA1; type: biochemical; settings: read-out: residual enzyme activity EphA1
T3 construct: purchased Eurofins Discovery (France)
T3 sequence (P21709 26-976): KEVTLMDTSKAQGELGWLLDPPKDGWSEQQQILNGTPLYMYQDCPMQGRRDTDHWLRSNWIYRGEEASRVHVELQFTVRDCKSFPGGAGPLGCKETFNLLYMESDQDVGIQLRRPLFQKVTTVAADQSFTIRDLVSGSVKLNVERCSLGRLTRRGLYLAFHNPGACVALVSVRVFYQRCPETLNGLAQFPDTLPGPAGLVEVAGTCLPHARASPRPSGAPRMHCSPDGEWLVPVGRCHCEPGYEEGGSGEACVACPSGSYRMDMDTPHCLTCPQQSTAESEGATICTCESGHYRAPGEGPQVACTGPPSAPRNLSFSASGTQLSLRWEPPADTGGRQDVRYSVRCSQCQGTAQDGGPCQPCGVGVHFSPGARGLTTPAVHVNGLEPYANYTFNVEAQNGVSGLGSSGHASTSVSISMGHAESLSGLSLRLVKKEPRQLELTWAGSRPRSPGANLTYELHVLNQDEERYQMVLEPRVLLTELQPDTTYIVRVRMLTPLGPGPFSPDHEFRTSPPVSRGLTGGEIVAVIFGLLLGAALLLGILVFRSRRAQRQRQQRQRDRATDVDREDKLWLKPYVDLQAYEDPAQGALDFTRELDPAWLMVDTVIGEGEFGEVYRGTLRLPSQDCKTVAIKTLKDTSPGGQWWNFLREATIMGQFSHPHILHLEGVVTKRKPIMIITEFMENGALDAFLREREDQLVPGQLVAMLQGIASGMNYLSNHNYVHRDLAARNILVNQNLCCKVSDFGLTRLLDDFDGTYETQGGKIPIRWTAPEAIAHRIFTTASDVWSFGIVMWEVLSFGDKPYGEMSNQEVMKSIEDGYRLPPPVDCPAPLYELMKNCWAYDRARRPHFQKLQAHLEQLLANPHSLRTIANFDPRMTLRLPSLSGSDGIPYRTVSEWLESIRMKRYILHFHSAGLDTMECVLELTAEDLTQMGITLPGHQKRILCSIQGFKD
Experimental: as §3, §4

| mice weight during therapy (MV4-11 xenograft) | remaining activity at 1 µM (Lyn) [%] | remaining activity at 1 µM (Abl) [%] | remaining activity at 1 µM (EphA1) [%] | melting point [°C] | Compound | cells in the G1 phase, MV4-11 (MV4-11 cells) | growth of xenografted MV4-11 cells (MV4-11 xenograft; 7 days, vs vehicle) | cells in the G1 phase, MOLM13 (MOLM13 cells) |
| --- | --- | --- | --- | --- | --- | --- | --- | --- |
| no significant reduction in mice weight | ≤ 10 | ≤ 10 | – | – | CC(C)n1c(=O)n(C2CCCC2)c2nc(Nc3ccc(N4CCNCC4)cc3)ncc21 [15a, 9-cyclopentyl-7-isopropyl-2-((4-(piperazin-1-yl)phenyl)amino)-7,9-dihydro-8H-purin-8-one] | up to 90% | significant reduction in the growth | up to 90% |
| – | – | – | ≤ 10 | – | Cn1c(=O)n(C2CCCCC2)c2nc(Nc3ccc(N4CCNCC4)cc3)ncc21 [14e] | – | – | – |
| – | – | – | ≤ 10 | 110 to 112 | Cn1c(=O)n(C2CCCC2)c2nc(Nc3ccc(N4CCNCC4)cc3)ncc21 [14d] | – | – | – |
